Test results published in patent US6689758B1, “Gene therapy method” (SmithKline Beecham Corporation, priority 1998, dated 2004).

Tests used:
[1] = tested on: human cell co-culture system; test: In vitro angiogenesis co-culture system (tubule formation, PECAM-1 staining); format: cell-based; conditions: 20 μM, negative control; 11 days co-culture
Method: Egr-1 under the control of the hCMV promoter (Houston et al, Arterioscler. Thromb. Vasc. Biol., 19; 281-289, 1999) was transfected into a human cell co-culture system designed to measure angiogenesis in vitro. The angiogenesis kit (TCS Biologicals) was used as described according to the manufacturer's instructions using VEGF protein (2 ng/ml) and suramin (20 μM) as positive and negative controls respectively for angiogenesis.
Optimisation of transfection in the co-culture system was performed using pGL3 control luciferase (Promega) with 1.0 μg and 0.5 μg CMV-β, gal as a normalising plasmid for transfection control. Two ratios of lipid: DNA (v/w) were used; 2:1 and 4:1 (FIG. 3a.). CMV Egr-1 DNA was transfected at 0.5, 1.0, 1.5 and 2.5 μg per well in triplicate in a 24 well microtitre plate using Mirus Transit reagent (Cambridge Biosciences) at a ratio of 2:1 v/w DNA. VEGF protein positive control and suramin negative control was added to triplicate wells. After 11 days co-culture angiogenesis was determined by staining of cells for the endothelial cell marker PECAM-1 and visualisation using BCIP/NBT substrate.
Representative images of tubule formation using all four doses of Egr-1 expression plasmid together with VEGF (positive control) and suramin (negative control) were captured and processed by image analysis using Quantimet 600 image analyser and associated software. […]

rat excisional wounds = test: Rat excisional wound healing model after particle mediated gene transfer; format: in vivo, Sprague Dawley rats
Method: Eighteen male Sprague Dawley rats weighing 250g were anaesthetised under isoflorane in a 2:1 mixture of oxygen/nitrous oxide. Two sites of transfection (8 cm from the skull, 1.5 cm either side of the spine) on the rat dorsum were prepared by firstly clipping the pelt then shaving with a razor. Two transfections were carried out per wound site, 8 mm apart, by accelerating plasmid/gold complexes of either Egr-1 or β-galactosidase into the skin at 350 psi. Total amount of DNA was not less than 1.7 μg per transfection (equalling 3.4 μg per wound). […]
Wound area was determined using image analysis and the healing expressed as a increase in percent of original wound area. Statistical significances of differences between treated and control groups were evaluated using a […] Mann-Whitney test.
Each wound per time point after dissection was bisected horizontally. […] Using this histological stain, key markers of wound healing was assessed including re-epithelialisation and collagen content and comparisons made between treated and control sections.
Immunocytochemistry and image analysis was performed in order to quantify the differences seen using routine histology. […] Area and intensity of staining was measured using image analysis and plotted as a graph. Statistical significant differences between treated and control groups were evaluated using a Man-Whitney nonparametric test.

HeLa cells = test: Transient transfection of reporter plasmid pSVSRE5 with pFA-MEK1 into HeLa cells; format: cell-based; conditions: co-transfected pFA-MEK1 vs pFA-dbd
Text: We have concentrated on SRE5. The novel SRE 5 with its associated Ets transcription factor binding sites was synthesised as a double stranded oligonucleotide and inserted into the Nhe I site upstream of a SV40 minimal promoter vector (pSV40). SRE5 (SEQ ID NOS:7-8) has the sequence: […]
The resulting reporter plasmid pSVSRE5 was transiently transfected into HeLa cells together with plasmids pFA-dbd (construct encoding the Gal4 DNA binding domain (dbd) ) or pFA-MEK1 (construct encoding a fusion protein of the Gal4 DNA binding domain (dbd) and the kinase domain of the MAP kinase kinase MEK1). The Gal4-MEK1 fusion protein is constitutively active and phosphorylates Elk1 and SRF, bound to SRE5.

Molecule: Cc1ccc(C(=O)Nc2ccc(S(=O)(=O)O)c3cc(S(=O)(=O)O)cc(S(=O)(=O)O)c23)cc1NC(=O)c1cccc(NC(=O)Nc2cccc(C(=O)Nc3cc(C(=O)Nc4ccc(S(=O)(=O)O)c5cc(S(=O)(=O)O)cc(S(=O)(=O)O)c45)ccc3C)c2)c1 [suramin]
- tubule formation [1]: Decreased tubule formation

Molecule: β-galactosidase
- collagen I immunostaining (image analysis) (rat excisional wounds; 2 days post wounding, β-galactosidase compared to Egr-1): significantly more collagen
- wounds with complete re-epithelialisation (rat excisional wounds; 6 days post wounding): 0%

B1: SRE5: novel SRE 5 with associated Ets sites, double stranded oligonucleotide inserted upstream of SV40 minimal promoter (reporter plasmid pSVSRE5) (nucleic acid)
chain 1: AGGCTGCGACCCGGAAATGCCATATAAGAAGCAGGAAGGATCCCCCCGCCGG
chain 2: AGCCGGCGGGGGGATCCTTCCTGCTTCTTATATGGCATTTCCGGGTCGCAGC
modifications: double-stranded insert cloned upstream of SV40 minimal promoter in reporter plasmid, further chemistry not given here
- activation by the presence of MEK1 (reporter) (HeLa cells): 3 fold
